Reference: patent US20260200888A1, “BIO-BASED COMPOUNDS” (SPECIALTY OPERATIONS FRANCE, priority 2022, published 2026)

Test: Solubility of mono-fungicides in the solvent of Example 1 and prior art solvents (Example 2)
Details: solvent Cyrene; 0° C. after seeding
Text: The concentration of the fungicides (w/v) was increased in 5% intervals and the highest still soluble concentration is stated in the table below.

SMILES | Maximum solubility (w/v) in Cyrene
CO/C=C(/C(=O)OC)c1ccccc1Oc1cc(Oc2ccccc2C#N)ncn1 [Azoxystrobin] | 20% (20%) % (w/v)
OC(Cc1ccccc1Cl)(Cn1nc[nH]c1=S)C1(Cl)CC1 (stereo not drawn) [Prothioconazole] | 10% (10%) % (w/v)
COC(=O)N(OC)c1ccccc1COc1ccn(-c2ccc(Cl)cc2)n1 [Pyraclostrobin] | 45% (45%) % (w/v)
CC(C)N(C)S(=O)(=O)NC(=O)c1cc(-n2c(=O)cc(C(F)(F)F)n(C)c2=O)c(F)cc1Cl [Saflufenacil] | 10% (10%) % (w/v)

Same assay, conditions: solvent Cyrene; 24° C.

SMILES | Maximum solubility (w/v) in Cyrene
CO/C=C(/C(=O)OC)c1ccccc1Oc1cc(Oc2ccccc2C#N)ncn1 [Azoxystrobin] | 20% (20%) % (w/v)
OC(Cc1ccccc1Cl)(Cn1nc[nH]c1=S)C1(Cl)CC1 (stereo not drawn) [Prothioconazole] | 10% (10%) % (w/v)
COC(=O)N(OC)c1ccccc1COc1ccn(-c2ccc(Cl)cc2)n1 [Pyraclostrobin] | 45% (45%) % (w/v)
CC(C)N(C)S(=O)(=O)NC(=O)c1cc(-n2c(=O)cc(C(F)(F)F)n(C)c2=O)c(F)cc1Cl [Saflufenacil] | 10% (10%) % (w/v)

Same assay, conditions: solvent Example 1; 0° C. after seeding

SMILES | Maximum solubility (w/v) in Example 1
CO/C=C(/C(=O)OC)c1ccccc1Oc1cc(Oc2ccccc2C#N)ncn1 [Azoxystrobin] | 10% (10%) % (w/v)
OC(Cc1ccccc1Cl)(Cn1nc[nH]c1=S)C1(Cl)CC1 (stereo not drawn) [Prothioconazole] | 50% (50%) % (w/v)
COC(=O)N(OC)c1ccccc1COc1ccn(-c2ccc(Cl)cc2)n1 [Pyraclostrobin] | 45% (45%) % (w/v)
CC(C)N(C)S(=O)(=O)NC(=O)c1cc(-n2c(=O)cc(C(F)(F)F)n(C)c2=O)c(F)cc1Cl [Saflufenacil] | 20% (20%) % (w/v)

Same assay, conditions: solvent Example 1; 24° C.; 5% intervals, highest still soluble concentration

SMILES | Maximum solubility (w/v) in Example 1
CO/C=C(/C(=O)OC)c1ccccc1Oc1cc(Oc2ccccc2C#N)ncn1 [Azoxystrobin] | 10% (10%) % (w/v)
OC(Cc1ccccc1Cl)(Cn1nc[nH]c1=S)C1(Cl)CC1 (stereo not drawn) [Prothioconazole] | 50% (50%) % (w/v)
COC(=O)N(OC)c1ccccc1COc1ccn(-c2ccc(Cl)cc2)n1 [Pyraclostrobin] | 45% (45%) % (w/v)
CC(C)N(C)S(=O)(=O)NC(=O)c1cc(-n2c(=O)cc(C(F)(F)F)n(C)c2=O)c(F)cc1Cl [Saflufenacil] | 20% (20%) % (w/v)

Same assay, conditions: solvent Rhodiasolv ADMA10; 0° C. after seeding

SMILES | Maximum solubility (w/v) in Rhodiasolv ADMA10
CO/C=C(/C(=O)OC)c1ccccc1Oc1cc(Oc2ccccc2C#N)ncn1 [Azoxystrobin] | (2%) % (w/v)
OC(Cc1ccccc1Cl)(Cn1nc[nH]c1=S)C1(Cl)CC1 (stereo not drawn) [Prothioconazole] | (40%) % (w/v)
COC(=O)N(OC)c1ccccc1COc1ccn(-c2ccc(Cl)cc2)n1 [Pyraclostrobin] | (10) % (w/v)
CC(C)N(C)S(=O)(=O)NC(=O)c1cc(-n2c(=O)cc(C(F)(F)F)n(C)c2=O)c(F)cc1Cl [Saflufenacil] | (10%) % (w/v)
CC(C)(C)C(O)(CCc1ccc(Cl)cc1)Cn1cncn1 (stereo not drawn) [Tebuconazole] | (20%) % (w/v)

Same assay, conditions: solvent Rhodiasolv ADMA10; 24° C.

SMILES | Maximum solubility (w/v) in Rhodiasolv ADMA10
CO/C=C(/C(=O)OC)c1ccccc1Oc1cc(Oc2ccccc2C#N)ncn1 [Azoxystrobin] | 2% (w/v)
OC(Cc1ccccc1Cl)(Cn1nc[nH]c1=S)C1(Cl)CC1 (stereo not drawn) [Prothioconazole] | 40% (w/v)
COC(=O)N(OC)c1ccccc1COc1ccn(-c2ccc(Cl)cc2)n1 [Pyraclostrobin] | 15% (w/v)
CC(C)N(C)S(=O)(=O)NC(=O)c1cc(-n2c(=O)cc(C(F)(F)F)n(C)c2=O)c(F)cc1Cl [Saflufenacil] | 10% (w/v)

Same assay, conditions: solvent Rhodiasolv PolarClean; 0° C. after seeding

SMILES | Maximum solubility (w/v) in Rhodiasolv PolarClean
CO/C=C(/C(=O)OC)c1ccccc1Oc1cc(Oc2ccccc2C#N)ncn1 [Azoxystrobin] | (5%) % (w/v)
OC(Cc1ccccc1Cl)(Cn1nc[nH]c1=S)C1(Cl)CC1 (stereo not drawn) [Prothioconazole] | (50%) % (w/v)
COC(=O)N(OC)c1ccccc1COc1ccn(-c2ccc(Cl)cc2)n1 [Pyraclostrobin] | (45%) % (w/v)
CC(C)N(C)S(=O)(=O)NC(=O)c1cc(-n2c(=O)cc(C(F)(F)F)n(C)c2=O)c(F)cc1Cl [Saflufenacil] | (25%) % (w/v)
CC(C)(C)C(O)(CCc1ccc(Cl)cc1)Cn1cncn1 (stereo not drawn) [Tebuconazole] | (30%) % (w/v)

Same assay, conditions: solvent Rhodiasolv PolarClean; 24° C.

SMILES | Maximum solubility (w/v) in Rhodiasolv PolarClean
CO/C=C(/C(=O)OC)c1ccccc1Oc1cc(Oc2ccccc2C#N)ncn1 [Azoxystrobin] | 15% (w/v)
OC(Cc1ccccc1Cl)(Cn1nc[nH]c1=S)C1(Cl)CC1 (stereo not drawn) [Prothioconazole] | 50% (w/v)
COC(=O)N(OC)c1ccccc1COc1ccn(-c2ccc(Cl)cc2)n1 [Pyraclostrobin] | 45% (w/v)
CC(C)N(C)S(=O)(=O)NC(=O)c1cc(-n2c(=O)cc(C(F)(F)F)n(C)c2=O)c(F)cc1Cl [Saflufenacil] | 25% (w/v)

Test: not given
Details: in Cyrene and NBP; even at 35% (w/v)

SMILES | Viscosity of the resulting NBPT solution
CCCCNP(N)(N)=S [NBPT, N-(n-butyl)thiophosphoric triamide] | highly viscous

Same assay, conditions: in Cyrene and NBP; even at low concentrations

SMILES | Appearance of the NBPT solution
CCCCNP(N)(N)=S [NBPT, N-(n-butyl)thiophosphoric triamide] | yellow discoloration

Test: Solubility of mono-fungicides in the solvent of Example 6 and prior art solvents (Example 7)
Details: solvent Cyrene; 24° C.

SMILES | Maximum solubility (w/v) in Cyrene
CO/C=C(/C(=O)OC)c1ccccc1Oc1cc(Oc2ccccc2C#N)ncn1 [Azoxystrobin] | 20% (w/v)
OC(Cc1ccccc1Cl)(Cn1nc[nH]c1=S)C1(Cl)CC1 (stereo not drawn) [Prothioconazole] | 10% (w/v)
COC(=O)N(OC)c1ccccc1COc1ccn(-c2ccc(Cl)cc2)n1 [Pyraclostrobin] | 45% (w/v)
CC(C)N(C)S(=O)(=O)NC(=O)c1cc(-n2c(=O)cc(C(F)(F)F)n(C)c2=O)c(F)cc1Cl [Saflufenacil] | 10% (w/v)

Same assay, conditions: solvent Example 6; 24° C.

SMILES | Maximum solubility (w/v) in Example 6
CO/C=C(/C(=O)OC)c1ccccc1Oc1cc(Oc2ccccc2C#N)ncn1 [Azoxystrobin] | 10% (w/v)
OC(Cc1ccccc1Cl)(Cn1nc[nH]c1=S)C1(Cl)CC1 (stereo not drawn) [Prothioconazole] | >30% (w/v)
COC(=O)N(OC)c1ccccc1COc1ccn(-c2ccc(Cl)cc2)n1 [Pyraclostrobin] | >25% (w/v)
CC(C)N(C)S(=O)(=O)NC(=O)c1cc(-n2c(=O)cc(C(F)(F)F)n(C)c2=O)c(F)cc1Cl [Saflufenacil] | >10% (w/v)

Same assay, conditions: solvent Rhodiasolv ADMA10; 24° C.

SMILES | Maximum solubility (w/v) in Rhodiasolv ADMA10
CO/C=C(/C(=O)OC)c1ccccc1Oc1cc(Oc2ccccc2C#N)ncn1 [Azoxystrobin] | 2% (w/v)
OC(Cc1ccccc1Cl)(Cn1nc[nH]c1=S)C1(Cl)CC1 (stereo not drawn) [Prothioconazole] | 40% (w/v)
COC(=O)N(OC)c1ccccc1COc1ccn(-c2ccc(Cl)cc2)n1 [Pyraclostrobin] | 15% (w/v)
CC(C)N(C)S(=O)(=O)NC(=O)c1cc(-n2c(=O)cc(C(F)(F)F)n(C)c2=O)c(F)cc1Cl [Saflufenacil] | 10% (w/v)
